Results: US6110918A, “Mesylate trihydrate salt of 5-(2-(4-(1,2-benzisothiazol-3-yl)-1-piperazinyl)ethyl)-6-chloro-1,3-dihy dro-2(1H)-indol-2-one (=ziprasidone), its preparation and its use as dopamine D2 antagonist” (Pfizer Inc, priority 1999, dated 2000)
Structures can show the parent of a compound that is named as a salt. Where two headings read alike, the source gives them in different places.

Experiments:
[1] = Hygroscopicity / hygroscopic stability; format: physicochemical
[2] = for SOLUBILITY IN WATER: Aqueous solubility of ziprasidone mesylate polymorphs, ambient temperature (22-25° C.), equilibration 12-13 days
Description: (§1) The relative thermodynamic stability of the three ziprasidone mesylate hydrated crystal forms was determined in a series of bridging experiments where mixtures of the crystal forms were allowed to equilibrate. For the bridging experiments, 200 mg samples were allowed to equilibrate in water (4 mL) at ambient temperature (22-25° C.). Two samples each of 90/10 (w/w) and 10/90 (w/w) mixtures of the two different identified polymorphs of ziprasidone mesylate (prism vs. dihydrate (lath), prism vs. dihydrate (needle), dihydrate (needle) vs. dihydrate (lath)) were evaluated. After equilibration (12-13 days), the solids were evaluated for polymorph changes and the supernatants were assayed by HPLC to determine solubility.

[3] = as stated by U.S. Pat. No. 5,312,925; cited from earlier work
[4] = Relative thermodynamic stability of the crystal forms in water (bridging experiments); format: physicochemical; conditions: for thermodynamic stability in an aqueous medium (words): ambient conditions/temperature, among the four ziprasidone mesylate forms, methanesulfonate trihydrate
[5] = physchem; conditions: water
Description: as §1

SMILES: O=C1Cc2cc(CCN3CCN(c4nsc5ccccc45)CC3)c(Cl)cc2N1 [5-[2-[4-(1,2-benzisothiazol-3-yl)-1-piperazinyl]ethyl]-6-chloro-1,3-dihydro-2H-indol-2-one methanesulfonate anhydrous]
- hygroscopicity when exposed to air ([1]; exposed to air (humidity)): hygroscopic when exposed to air (humidity)
- SOLUBILITY IN WATER ([2]; listed as anhydrous): 1.27 mg/mL

SMILES: O=C1Cc2cc(CCN3CCN(c4nsc5ccccc45)CC3)c(Cl)cc2N1 [5-[2-[4-(1-benzisothiazol-3-yl)-1-piperazinyl]ethyl]-6-chloro-1,3-dihydro-2H-indol-2-one methanesulfonate dihydrate (lath crystals)]
- SOLUBILITY IN WATER ([2]; listed as dihydrate (lath)): 1.11 mg/mL

SMILES: O=C1Cc2cc(CCN3CCN(c4nsc5ccccc45)CC3)c(Cl)cc2N1 [5-[2-[4-(1-benzisothiazol-3-yl)-1-piperazinyl]ethyl]-6-chloro-1,3-dihydro-2H-indol-2-one methanesulfonate dihydrate (needle crystals)]
- SOLUBILITY IN WATER ([2]; listed as dihydrate (needle)): 1.10 mg/mL

SMILES: O=C1Cc2cc(CCN3CCN(c4nsc5ccccc45)CC3)c(Cl)cc2N1 [ziprasidone hydrochloride monohydrate, reference compound]
- aqueous solubility ([2]; background statement): low aqueous solubility
- solubility in water ([2]; in water at ambient temperature, comparator salt): 80 µg/mL
- hygroscopic stability [3]: substantially hygroscopically stable

SMILES: CS(=O)(=O)O.O.O.O.O=C1Cc2cc(CCN3CCN(c4nsc5ccccc45)CC3)c(Cl)cc2N1 [ziprasidone mesylate trihydrate, 5-[2-[4-(1,2-benzisothiazol-3-yl)-1-piperazinyl]ethyl]-6-chloro-1,3-dihydro-2H-indol-2-one methanesulfonate trihydrate]
- thermodynamic stability in an aqueous medium (words) ([4]; listed as mesylate trihydrate): most thermodynamically stable
- thermodynamic stability in an aqueous medium (words) [4]: most thermodynamically stable form of the four ziprasidone mesylate forms
- thermodynamic stability relative to the dihydrate forms ([4]; bridging experiments, 200 mg in water (4 mL), 22-25° C., 12-13 days): thermodynamically favored over the dihydrate forms
- hygroscopic stability [1]: possesses hygroscopic stability
- aqueous solubility relative to ziprasidone hydrochloride monohydrate ([2]; compared with hydrochloride monohydrate): significantly greater aqueous solubility than the hydrochloride monohydrate
- solubility [5]: 730 µg/mL
